Reference: patent US20140309257A1, “TOPOISOMERASE INHIBITORS AND METHODS OF MAKING AND USE AS THERAPEUTIC AGENTS” (THE REGENTS OF THE UNIVERSITY OF COLORADO, a body corporate, priority 2011, published 2014)

Legend:
xenograft tumors = conditions: in mice; compared with etoposide; cited from earlier work
DNA = conditions: below 100 μM concentrations; cited from earlier work
[1] = tested on: human colon tumor (HCT-116); conditions: compared with 9-aminocamptothecin; cited from earlier work
[2] = tested on: triple negative MDA-MB-231 breast carcinoma spheroids; test: 3D-spheroid invasion; type: cell-based, human; conditions: through reversion of EMT
Text: A 3D-spheroid culture formulation was developed that allows for the culture of single uniform spheroids with variety of cell types in 96-well plates that can be used with a variety of epithelial-mesenchymal transition (EMT) biomarker reporters (see, U.S. Patent Publication No. 2011/0143960 A1; Li Q, Chen C, Kapadia A, Zhou Q, Harper M K, et al. (2011), 3D Models of epithelial-mesenchymal transition in breast cancer metastasis: high-throughput screening assay development, validation, and pilot screen. J Biomol Screen 16: 141-154). The 3D-spheroid based assays with neo (control) and derivatives were used to test their ability to revert EMT or induce cytotoxicity against human carcinomas resistant to clinically used TopoIIα drugs, including: MDA-MB-231, MCF7/AdrVP breast cancer, and SW480, Colo201, and DLD-1 (APC mutant) colon cancer cells. This 3D-model utilizes a luciferase reporter of vimentin, a key mesenchymal biomarker expressed in these cells. Vimentin expression is measured using a live spheroid luciferin substrate (caged luciferin) followed by a multiplex assay measuring spheroid viability. […]
Active compounds are then tested for their ability to inhibit spheroid invasion, as follows: Spheroid invasion is measured using 15 spheroids per sample group. […] Invading cells will be measured using an OPERETTA™ high content imaging system.

Pgp = Pgp (Homo sapiens, UniProt P08183); conditions: cited from earlier work
Chain of Pgp (P08183 whole entry): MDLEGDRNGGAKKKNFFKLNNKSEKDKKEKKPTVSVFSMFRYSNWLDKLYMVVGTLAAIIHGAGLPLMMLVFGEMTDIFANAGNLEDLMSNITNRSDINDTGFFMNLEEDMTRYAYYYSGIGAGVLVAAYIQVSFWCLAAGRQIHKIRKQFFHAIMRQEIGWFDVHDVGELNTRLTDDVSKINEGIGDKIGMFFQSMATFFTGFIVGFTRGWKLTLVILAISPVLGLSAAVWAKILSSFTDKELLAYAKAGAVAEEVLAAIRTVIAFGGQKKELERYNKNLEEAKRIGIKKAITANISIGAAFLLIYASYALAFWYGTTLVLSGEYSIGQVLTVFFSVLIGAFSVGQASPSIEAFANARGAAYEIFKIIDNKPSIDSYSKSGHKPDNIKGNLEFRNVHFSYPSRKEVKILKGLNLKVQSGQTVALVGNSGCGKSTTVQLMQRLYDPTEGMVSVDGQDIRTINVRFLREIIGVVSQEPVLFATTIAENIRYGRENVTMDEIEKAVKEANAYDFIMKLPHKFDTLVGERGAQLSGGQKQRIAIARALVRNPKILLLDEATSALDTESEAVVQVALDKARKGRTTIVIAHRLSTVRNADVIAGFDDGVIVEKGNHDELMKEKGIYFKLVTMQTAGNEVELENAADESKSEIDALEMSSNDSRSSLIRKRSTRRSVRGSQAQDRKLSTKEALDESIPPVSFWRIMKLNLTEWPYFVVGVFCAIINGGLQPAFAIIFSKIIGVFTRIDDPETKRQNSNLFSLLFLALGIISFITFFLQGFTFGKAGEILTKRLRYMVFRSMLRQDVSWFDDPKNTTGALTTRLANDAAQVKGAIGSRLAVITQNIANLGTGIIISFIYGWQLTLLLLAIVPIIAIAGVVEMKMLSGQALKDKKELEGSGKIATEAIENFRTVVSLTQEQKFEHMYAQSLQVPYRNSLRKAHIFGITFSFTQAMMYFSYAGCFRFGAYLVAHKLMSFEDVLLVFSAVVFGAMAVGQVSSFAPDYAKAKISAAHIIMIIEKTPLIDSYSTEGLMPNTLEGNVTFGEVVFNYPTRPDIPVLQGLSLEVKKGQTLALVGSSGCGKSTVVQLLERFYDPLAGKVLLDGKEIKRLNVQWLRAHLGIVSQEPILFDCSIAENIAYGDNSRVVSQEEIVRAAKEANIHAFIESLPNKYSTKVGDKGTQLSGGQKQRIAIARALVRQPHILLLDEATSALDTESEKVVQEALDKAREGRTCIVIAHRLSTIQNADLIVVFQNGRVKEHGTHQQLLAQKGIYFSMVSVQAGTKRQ

TopoIIα = TopoIIα (Homo sapiens, UniProt P11388); test: In vitro ATP hydrolysis assay (malachite green); type: biochemical
Chain of TopoIIα (P11388 whole entry): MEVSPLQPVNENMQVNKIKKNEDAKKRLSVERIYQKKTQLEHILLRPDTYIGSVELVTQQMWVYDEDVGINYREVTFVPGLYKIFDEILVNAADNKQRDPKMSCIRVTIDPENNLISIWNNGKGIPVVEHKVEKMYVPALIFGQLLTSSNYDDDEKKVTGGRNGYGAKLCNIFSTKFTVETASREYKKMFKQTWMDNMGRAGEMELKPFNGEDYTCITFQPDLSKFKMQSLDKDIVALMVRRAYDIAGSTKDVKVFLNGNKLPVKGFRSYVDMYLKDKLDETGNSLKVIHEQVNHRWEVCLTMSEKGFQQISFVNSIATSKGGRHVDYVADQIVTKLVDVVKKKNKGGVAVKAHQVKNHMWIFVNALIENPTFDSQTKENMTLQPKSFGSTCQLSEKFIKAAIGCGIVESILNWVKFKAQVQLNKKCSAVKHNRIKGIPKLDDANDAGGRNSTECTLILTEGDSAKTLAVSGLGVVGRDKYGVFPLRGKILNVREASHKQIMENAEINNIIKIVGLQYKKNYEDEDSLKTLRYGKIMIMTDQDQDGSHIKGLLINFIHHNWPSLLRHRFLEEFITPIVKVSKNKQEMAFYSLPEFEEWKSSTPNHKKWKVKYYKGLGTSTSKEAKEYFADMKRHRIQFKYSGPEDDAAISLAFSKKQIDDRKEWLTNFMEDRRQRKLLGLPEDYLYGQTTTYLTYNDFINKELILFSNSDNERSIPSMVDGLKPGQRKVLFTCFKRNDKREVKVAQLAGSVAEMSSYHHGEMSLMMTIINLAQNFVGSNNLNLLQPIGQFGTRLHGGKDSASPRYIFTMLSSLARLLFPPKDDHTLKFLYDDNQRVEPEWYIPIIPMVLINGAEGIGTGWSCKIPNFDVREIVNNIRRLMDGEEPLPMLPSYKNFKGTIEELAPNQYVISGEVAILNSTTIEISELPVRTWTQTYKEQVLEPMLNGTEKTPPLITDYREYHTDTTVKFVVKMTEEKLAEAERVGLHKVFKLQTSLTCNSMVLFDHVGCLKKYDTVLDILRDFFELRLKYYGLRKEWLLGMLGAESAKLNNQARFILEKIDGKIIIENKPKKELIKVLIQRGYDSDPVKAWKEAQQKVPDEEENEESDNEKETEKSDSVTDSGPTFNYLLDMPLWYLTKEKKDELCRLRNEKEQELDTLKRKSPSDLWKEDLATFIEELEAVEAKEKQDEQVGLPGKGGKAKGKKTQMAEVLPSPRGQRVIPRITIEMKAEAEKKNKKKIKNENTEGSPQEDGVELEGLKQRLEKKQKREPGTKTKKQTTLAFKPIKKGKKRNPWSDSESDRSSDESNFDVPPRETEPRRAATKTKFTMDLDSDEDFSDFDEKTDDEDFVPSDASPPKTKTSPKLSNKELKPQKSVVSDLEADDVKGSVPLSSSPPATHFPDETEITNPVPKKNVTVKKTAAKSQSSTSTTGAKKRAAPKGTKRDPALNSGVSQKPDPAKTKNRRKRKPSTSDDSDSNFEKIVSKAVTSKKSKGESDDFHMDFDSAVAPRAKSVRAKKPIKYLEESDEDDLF
Procedure: Efficacy of the ATP-competitive inhibition of TopoIIα inhibitors of the invention are tested in vitro using an ATP hydrolysis assay that quantifies inorganic phosphate through the formation of a high molar absorptivity complex with malachite green and molybdate, adapted for use in 384-well plates, with a total reaction volume of 15 μL. This assay was first utilized to determine the Km of TopoIIα for its natural substrate, ATP, using ATP concentrations ranging from 62.5-1600 μM. To measure the apparent Km, the same reactions were repeated in the presence of 2, 5, or 10 μM neo. Absorbance at 620 nm was measured using a microtiter plate reader. To determine the Ki the same method was used with the following modifications: inhibitors (0.1-10 μM) in reaction buffer (without DNA and DTT) are added to the complete reaction buffer and preincubated for 10 min at 37° C. Reactions were initiated by the addition of 600 μM ATP and incubated for 30 min at 37° C. The IC50 value was determined and the Ki was calculated using the Cheng-Prusoff equation. Experiments were repeated in triplicate and GraphPad Prism software was used to perform non-linear fits (method of least squares) to the Michaelis-Menten kinetics (Km and Vmax) or the dose-response inhibition model (IC50 values).

Cn1ccc2c(c1=O)C(=O)c1nccc3c1c-2nc1ccccc13 [neo, Neoamphimedine]
inhibition of the growth of xenograft tumors (xenograft tumors): as effective as etoposide | stabilization of the cleaved complex, DNA strand breaks or intercalation of DNA (DNA): without stabilizing the cleaved complex, or causing significant DNA strand breaks or intercalation of DNA | efficacy in HCT-116 xenografts [1]: as efficacious as | inhibition of invasive potential of spheroids [2]: significantly inhibits the invasive potential | substrate for Pgp-dependent MDR (Pgp): not a substrate | Ki (TopoIIα; corresponding to the IC50, calculated using the Cheng-Prusoff equation, read-out: Ki, inhibition of TopoIIα ATPase function): 800 ± 300 nM | increase of the apparent Km of TopoIIα for ATP (TopoIIα; over a concentration range from 0-10 μM): approximately 2 fold | IC50 (TopoIIα; read-out: IC50, inhibition of TopoIIα ATPase function): 2000 nM
